Measured values as given in ChEMBL document CHEMBL1201862, “PubChem BioAssay data set” (2004).
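Each compound was tested at five concentrations against cells in 96-well plates for 48 hours. GI50 is the concentration that inhibits growth by half.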 Activity calls are given as the source filed them. Rule as the data show it: active = GI50 up to about 1.1 µM and inactive = higher.

Experiments:
Test in all cases: NCI anticancer screen, dose series, 48 h
[1] = test system: 786-0
[2] = test system: A498
[3] = test system: ACHN
[4] = test system: BT-549
[5] = test system: CAKI-1
[6] = test system: CCRF-CEM
[7] = test system: COLO 205
[8] = test system: DU-145
[9] = test system: EKVX
[10] = test system: HCT-116
[11] = test system: HCT-15
[12] = test system: HL-60
[13] = test system: HT-29
[14] = test system: Hs-578T
[15] = test system: IGROV-1
[16] = test system: K562
[17] = test system: KM12
[18] = test system: LOX IMVI
[19] = test system: M14
[20] = test system: MCF7
[21] = test system: MDA-MB-231
[22] = test system: MDA-MB-435
[23] = test system: MDA-N
[24] = test system: MOLT-4
[25] = test system: Malme-3M
[26] = test system: NCI-H226
[27] = test system: NCI-H23
[28] = test system: NCI/ADR-RES
[29] = test system: OVCAR-3
[30] = test system: OVCAR-5
[31] = test system: OVCAR-8
[32] = test system: PC-3
[33] = test system: RPMI-8226
[34] = test system: RXF 393
[35] = test system: SF-268
[36] = test system: SF-295
[37] = test system: SF-539
[38] = test system: SK-MEL-28
[39] = test system: SK-MEL-2
[40] = test system: SK-MEL-5
[41] = test system: SK-OV-3
[42] = test system: SN12C
[43] = test system: SNB-19
[44] = test system: SNB-75
[45] = test system: SW-620
[46] = test system: T47D
[47] = test system: TK-10
[48] = test system: U-251
[49] = test system: UACC-257
[50] = test system: UACC-62
[51] = test system: UO-31

CC1CC/C(=C\c2ccc(F)cc2)C(=O)/C1=C/c1ccc(F)cc1 (stereo unspecified)
GI50 [1]: 2.9 µM (inactive)
GI50 [2]: 12.6 µM (inactive)
GI50 [3]: 4.15 µM (inactive)
GI50 [4]: 3.58 µM (inactive)
GI50 [5]: 3.85 µM (inactive)
GI50 [6]: 3.62 µM (inactive)
GI50 [7]: 5.77 µM (inactive)
GI50 [8]: 4.07 µM (inactive)
GI50 [9]: 3.67 µM (inactive)
GI50 [10]: 2.5 µM (inactive)
GI50 [11]: 2.34 µM
GI50 [12]: 3.08 µM (inactive)
GI50 [13]: 2.92 µM (inactive)
GI50 [14]: 6.58 µM (inactive)
GI50 [15]: 3.04 µM (inactive)
GI50 [16]: 3.76 µM (inactive)
GI50 [17]: 2.97 µM (inactive)
GI50 [18]: 2.77 µM (inactive)
GI50 [19]: 6.76 µM (inactive)
GI50 [20]: 4.21 µM (inactive)
GI50 [21]: 2.66 µM (inactive)
GI50 [22]: 4.69 µM (inactive)
GI50 [23]: 3.54 µM (inactive)
GI50 [24]: 3.02 µM (inactive)
GI50 [25]: 17.9 µM (inactive)
GI50 [26]: 7.03 µM (inactive)
GI50 [27]: 6.44 µM (inactive)
GI50 [28]: 2 µM (inactive)
GI50 [29]: 5.7 µM (inactive)
GI50 [30]: 4.13 µM (inactive)
GI50 [31]: 2.7 µM (inactive)
GI50 [32]: 5.2 µM (inactive)
GI50 [33]: 1.61 µM (inactive)
GI50 [34]: 3.17 µM (inactive)
GI50 [35]: 3.6 µM (inactive)
GI50 [36]: 2.84 µM (inactive)
GI50 [37]: 3.68 µM (inactive)
GI50 [38]: 13.2 µM (inactive)
GI50 [39]: 4.83 µM (inactive)
GI50 [40]: 4.57 µM (inactive)
GI50 [41]: 17.4 µM (inactive)
GI50 [42]: 3.22 µM (inactive)
GI50 [43]: 10.1 µM (inactive)
GI50 [44]: 2.04 µM (inactive)
GI50 [45]: 6.04 µM (inactive)
GI50 [46]: 5.46 µM (inactive)
GI50 [47]: 3.85 µM (inactive)
GI50 [48]: 4.95 µM (inactive)
GI50 [49]: 15.7 µM (inactive)
GI50 [50]: 11.6 µM (inactive)
GI50 [51]: 11.1 µM (inactive)
